According to article PMC11191095, “QSAR Reveals Decreased Lipophilicity of Polar Residues Determines the Selectivity of Antimicrobial Peptide Activity” (ACS Omega, 2024):
Where a SMILES comes first, the peptide text is derived from it.

What was measured:
Assay in all cases: microbe, parasite or virus in culture
E. coli LEC001 = format: cell-based, Escherichia coli; settings: E. coli LEC001 (R)
Outline: (§1)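 Peptides 128→2 μg/mL, 2-fold series; inoculum ~5 × 10^5 CFU/mL from overnight culture (OD600 0.01, mixed 1:1). MHB non-cation-adjusted for bacteria, RPMI 1640 + 2% glucose for fungi. 37 °C, 20 h, OD600. MIC50/MIC90 at 50%/90% inhibition; n ≥ 3.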

E. coli NCTC 12923 = format: cell-based, Escherichia coli; settings: E. coli NCTC 12923 (S)
Outline: as §1

P. aeruginosa NCTC 13437 = format: cell-based, Pseudomonas aeruginosa; settings: P. aeruginosa NCTC 13437 (R)
Outline: as §1

A. baumannii ATCC 17978 = format: cell-based, Acinetobacter baumannii; settings: A. baumannii ATCC 17978 (S)
Outline: as §1

A. baumannii AYE = format: cell-based, Acinetobacter baumannii; settings: A. baumannii AYE (R)
Outline: as §1

K. pneumoniae M6 = format: cell-based, Klebsiella pneumoniae; settings: K. pneumoniae M6 (S)
Outline: as §1

K. pneumoniae NCTC 13368 = format: cell-based, Klebsiella pneumoniae; settings: K. pneumoniae NCTC 13368 (R)
Outline: as §1

[1] = tested on: S. aureus (MRSA) NCTC 13616; format: cell-based, Staphylococcus aureus; settings: S. aureus (MRSA) NCTC 13616 (R)
Outline: as §1

S. aureus (MRSA) USA300 = format: cell-based, Staphylococcus aureus; settings: S. aureus (MRSA) USA300 (R)
Outline: as §1

[2] = tested on: S. aureus (MSSA) ATCC 9144; format: cell-based, Staphylococcus aureus; settings: S. aureus (MSSA) ATCC 9144 (S)
Outline: as §1

C. auris TDG 1912 = format: cell-based, Candida auris; settings: C. auris TDG 1912
Outline: as §1

C. albicans NCPF 3281 = format: cell-based; settings: C. albicans NCPF 3281
Outline: as §1

C. glabrata NCPF 8018 = format: cell-based; settings: C. glabrata NCPF 8018
Outline: as §1

C. krusei NCPF 3876 = format: cell-based; settings: C. krusei NCPF 3876
Outline: as §1

[3] = tested on: C. parapsilosis NCPF 3209; format: cell-based; settings: C. parapsilosis NCPF 3209
Outline: as §1

C. tropicalis NCPF 8760 = format: cell-based; settings: C. tropicalis NCPF 8760
Outline: as §1

[4] = MHB, 37 °C, 20 h, OD600, min. three biological repeats
[5] = 50% growth inhibition, RPMI 1640 + 2% glucose, 37 °C, 20 h
[6] = 90% growth inhibition, RPMI 1640 + 2% glucose, 37 °C, 20 h

C[C@H](NC(=O)CNC(=O)[C@H](CCCCN)NC(=O)[C@@H](N)CS)C(=O)N[C@@H](Cc1ccccc1)C(=O)N[C@@H](CCCCN)C(=O)N[C@@H](CCC(N)=O)C(=O)N[C@H](C(=O)N[C@@H](CS)C(=O)N[C@@H](CCCCN)C(=O)N[C@@H](CS)C(=O)N[C@@H](Cc1ccc(O)cc1)C(N)=O)[C@@H](C)O [Os(11-22)a] (H-CKGAFKQTCKCY-NH2; N-terminus assumed)
Modal MIC (E. coli LEC001; [4]): > 128 µg/mL | Modal MIC (E. coli LEC001; shown in µM): > 91.7 µM | Modal MIC (E. coli NCTC 12923; MHB, ~5×10^5 CFU/mL, 37 °C, 20 h, OD600, min. three biological repeats): > 128 µg/mL | Modal MIC (E. coli NCTC 12923; shown in µM): > 91.7 µM | Modal MIC (P. aeruginosa NCTC 13437; [4]): > 128 µg/mL | Modal MIC (P. aeruginosa NCTC 13437; shown in µM): > 91.7 µM | Modal MIC (A. baumannii ATCC 17978; [4]): > 128 µg/mL | Modal MIC (A. baumannii ATCC 17978; shown in µM): > 91.7 µM | Modal MIC (A. baumannii AYE; [4]): > 128 µg/mL | Modal MIC (A. baumannii AYE; shown in µM): > 91.7 µM | Modal MIC (K. pneumoniae M6; [4]): > 128 µg/mL | Modal MIC (K. pneumoniae M6; shown in µM): > 91.7 µM | Modal MIC (K. pneumoniae NCTC 13368; [4]): > 128 µg/mL | Modal MIC (K. pneumoniae NCTC 13368; shown in µM): > 91.7 µM | Modal MIC [1, 4]: > 128 µg/mL | Modal MIC ([1]; shown in µM): > 91.7 µM | Modal MIC (S. aureus (MRSA) USA300; [4]): > 128 µg/mL | Modal MIC (S. aureus (MRSA) USA300; shown in µM): > 91.7 µM | Modal MIC [2, 4]: > 128 µg/mL | Modal MIC ([2]; shown in µM): > 91.7 µM | Modal MIC50 (C. auris TDG 1912; 50% growth inhibition, RPMI 1640 + 2% glucose, 37 °C, 20 h, OD600): > 128 µg/mL | Modal MIC90 (C. auris TDG 1912; 90% growth inhibition, RPMI 1640 + 2% glucose, 37 °C, 20 h, OD600): > 128 µg/mL | Modal MIC50 (C. auris TDG 1912; shown in µM): > 91.7 µM | Modal MIC90 (C. auris TDG 1912; shown in µM): > 91.7 µM | Modal MIC50 (C. albicans NCPF 3281; [5]): > 128 µg/mL | Modal MIC90 (C. albicans NCPF 3281; [6]): > 128 µg/mL | Modal MIC50 (C. albicans NCPF 3281; shown in µM): > 91.7 µM | Modal MIC90 (C. albicans NCPF 3281; shown in µM): > 91.7 µM | Modal MIC50 (C. glabrata NCPF 8018; [5]): > 128 µg/mL | Modal MIC90 (C. glabrata NCPF 8018; [6]): > 128 µg/mL | Modal MIC50 (C. glabrata NCPF 8018; shown in µM): > 91.7 µM | Modal MIC90 (C. glabrata NCPF 8018; shown in µM): > 91.7 µM | Modal MIC50 (C. krusei NCPF 3876; [5]): > 128 µg/mL | Modal MIC90 (C. krusei NCPF 3876; [6]): > 128 µg/mL | Modal MIC50 (C. krusei NCPF 3876; shown in µM): > 91.7 µM | Modal MIC90 (C. krusei NCPF 3876; shown in µM): > 91.7 µM | Modal MIC50 [3, 5]: > 128 µg/mL | Modal MIC90 [3, 6]: > 128 µg/mL | Modal MIC50 ([3]; shown in µM): > 91.7 µM | Modal MIC90 ([3]; shown in µM): > 91.7 µM | Modal MIC50 (C. tropicalis NCPF 8760; [5]): > 128 µg/mL | Modal MIC90 (C. tropicalis NCPF 8760; [6]): > 128 µg/mL | Modal MIC50 (C. tropicalis NCPF 8760; shown in µM): > 91.7 µM | Modal MIC90 (C. tropicalis NCPF 8760; shown in µM): > 91.7 µM
